# Results as given in ChEMBL document CHEMBL5291721, “A preclinical secondary pharmacology resource illuminates target-adverse drug reaction associations of marketed drugs” (Nat Commun, 2023).
# Where a SMILES comes first, the peptide text is derived from it.
# What was measured:
# Androgen receptor = target: T1, Androgen receptor (Rattus norvegicus, UniProt P15207); format: functional
# T1 sequence (P15207 whole entry): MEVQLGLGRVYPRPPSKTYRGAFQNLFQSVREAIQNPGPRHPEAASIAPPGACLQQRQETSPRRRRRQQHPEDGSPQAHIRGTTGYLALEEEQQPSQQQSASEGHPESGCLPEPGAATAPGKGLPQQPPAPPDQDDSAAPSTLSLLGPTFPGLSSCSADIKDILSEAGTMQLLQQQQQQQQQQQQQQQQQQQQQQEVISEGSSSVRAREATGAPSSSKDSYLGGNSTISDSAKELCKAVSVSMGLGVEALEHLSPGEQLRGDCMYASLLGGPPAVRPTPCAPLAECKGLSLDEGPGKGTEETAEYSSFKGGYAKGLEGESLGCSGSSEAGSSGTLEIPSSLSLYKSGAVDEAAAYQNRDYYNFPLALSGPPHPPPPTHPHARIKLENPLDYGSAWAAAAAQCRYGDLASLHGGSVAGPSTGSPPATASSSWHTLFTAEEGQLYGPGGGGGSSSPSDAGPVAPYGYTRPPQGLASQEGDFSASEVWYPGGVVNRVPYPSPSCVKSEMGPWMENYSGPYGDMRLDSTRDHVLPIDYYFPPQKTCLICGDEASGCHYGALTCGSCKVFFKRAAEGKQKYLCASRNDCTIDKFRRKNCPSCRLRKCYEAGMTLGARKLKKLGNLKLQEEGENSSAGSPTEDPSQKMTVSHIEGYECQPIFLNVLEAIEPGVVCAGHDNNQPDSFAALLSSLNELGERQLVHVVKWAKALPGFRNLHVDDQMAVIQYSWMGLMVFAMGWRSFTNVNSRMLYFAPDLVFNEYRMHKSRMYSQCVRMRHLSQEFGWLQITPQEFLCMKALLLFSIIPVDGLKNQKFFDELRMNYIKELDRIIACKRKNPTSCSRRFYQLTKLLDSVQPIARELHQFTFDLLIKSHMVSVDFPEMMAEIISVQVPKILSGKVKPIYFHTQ
# [1] = target: T2, Gamma-aminobutyric acid receptor subunit alpha-1/alpha-2/beta-2/gamma-2 (Homo sapiens, UniProt P14867+P18507+P47869+P47870); format: functional, cell-based
# T2 sequence (P14867 whole entry): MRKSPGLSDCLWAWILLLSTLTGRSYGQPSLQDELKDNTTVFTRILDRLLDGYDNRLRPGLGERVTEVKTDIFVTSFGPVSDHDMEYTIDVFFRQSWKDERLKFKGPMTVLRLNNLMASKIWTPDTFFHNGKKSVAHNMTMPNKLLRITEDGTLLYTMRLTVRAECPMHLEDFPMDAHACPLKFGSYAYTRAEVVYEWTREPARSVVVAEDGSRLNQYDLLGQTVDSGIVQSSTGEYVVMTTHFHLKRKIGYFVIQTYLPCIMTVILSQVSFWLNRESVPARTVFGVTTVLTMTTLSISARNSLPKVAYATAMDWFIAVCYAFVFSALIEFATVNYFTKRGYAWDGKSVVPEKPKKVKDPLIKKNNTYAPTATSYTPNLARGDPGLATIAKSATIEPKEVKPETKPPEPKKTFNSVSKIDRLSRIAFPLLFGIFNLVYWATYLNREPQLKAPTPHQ
# T2 sequence (P47870 whole entry): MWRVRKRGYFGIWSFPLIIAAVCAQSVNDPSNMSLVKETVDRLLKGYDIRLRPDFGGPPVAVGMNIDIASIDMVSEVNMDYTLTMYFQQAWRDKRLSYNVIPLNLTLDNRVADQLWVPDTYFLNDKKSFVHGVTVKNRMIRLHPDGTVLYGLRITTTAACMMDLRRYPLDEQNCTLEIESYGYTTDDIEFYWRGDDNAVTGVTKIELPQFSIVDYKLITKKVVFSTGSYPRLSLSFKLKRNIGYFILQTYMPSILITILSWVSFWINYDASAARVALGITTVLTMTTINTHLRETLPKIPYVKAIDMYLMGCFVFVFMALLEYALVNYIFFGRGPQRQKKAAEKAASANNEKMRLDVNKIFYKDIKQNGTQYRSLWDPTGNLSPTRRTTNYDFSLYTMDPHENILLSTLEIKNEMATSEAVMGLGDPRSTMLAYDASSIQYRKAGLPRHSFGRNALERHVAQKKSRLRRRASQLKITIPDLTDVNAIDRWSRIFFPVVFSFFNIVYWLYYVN
# T2 sequence (P18507 whole entry): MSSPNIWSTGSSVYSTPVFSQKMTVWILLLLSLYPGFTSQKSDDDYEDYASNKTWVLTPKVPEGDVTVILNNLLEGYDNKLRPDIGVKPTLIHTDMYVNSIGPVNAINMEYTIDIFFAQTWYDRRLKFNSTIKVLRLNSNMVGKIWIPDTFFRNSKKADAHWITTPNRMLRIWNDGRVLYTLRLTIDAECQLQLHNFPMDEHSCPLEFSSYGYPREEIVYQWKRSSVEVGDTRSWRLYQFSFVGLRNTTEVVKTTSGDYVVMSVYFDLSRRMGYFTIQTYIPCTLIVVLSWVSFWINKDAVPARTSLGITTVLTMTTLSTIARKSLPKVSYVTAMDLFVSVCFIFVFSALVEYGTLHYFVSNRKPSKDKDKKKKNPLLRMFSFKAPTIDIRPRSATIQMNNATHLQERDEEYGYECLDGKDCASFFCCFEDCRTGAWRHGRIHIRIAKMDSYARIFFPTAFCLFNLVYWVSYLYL
# T2 sequence (P47869 whole entry): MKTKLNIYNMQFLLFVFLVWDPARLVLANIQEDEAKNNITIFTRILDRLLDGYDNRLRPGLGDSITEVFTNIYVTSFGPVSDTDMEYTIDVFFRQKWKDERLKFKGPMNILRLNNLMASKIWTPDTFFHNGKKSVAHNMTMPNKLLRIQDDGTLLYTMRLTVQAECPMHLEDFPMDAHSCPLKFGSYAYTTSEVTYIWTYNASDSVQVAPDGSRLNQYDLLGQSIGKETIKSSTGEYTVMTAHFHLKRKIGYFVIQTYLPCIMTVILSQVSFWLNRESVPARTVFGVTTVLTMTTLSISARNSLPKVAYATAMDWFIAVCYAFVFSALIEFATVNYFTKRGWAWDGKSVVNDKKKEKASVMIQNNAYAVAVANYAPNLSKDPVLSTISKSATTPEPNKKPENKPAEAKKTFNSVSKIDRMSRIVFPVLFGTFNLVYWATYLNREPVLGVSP
# [2] = target: T2, Gamma-aminobutyric acid receptor subunit alpha-1/alpha-2/beta-2/gamma-2; format: functional, cell-based; remark: listed apart in the source
# [3] = target: Sodium channel protein type 5 subunit alpha (Homo sapiens, UniProt Q14524); format: functional, cell-based
# Sequence of Sodium channel protein type 5 subunit alpha (Q14524 whole entry): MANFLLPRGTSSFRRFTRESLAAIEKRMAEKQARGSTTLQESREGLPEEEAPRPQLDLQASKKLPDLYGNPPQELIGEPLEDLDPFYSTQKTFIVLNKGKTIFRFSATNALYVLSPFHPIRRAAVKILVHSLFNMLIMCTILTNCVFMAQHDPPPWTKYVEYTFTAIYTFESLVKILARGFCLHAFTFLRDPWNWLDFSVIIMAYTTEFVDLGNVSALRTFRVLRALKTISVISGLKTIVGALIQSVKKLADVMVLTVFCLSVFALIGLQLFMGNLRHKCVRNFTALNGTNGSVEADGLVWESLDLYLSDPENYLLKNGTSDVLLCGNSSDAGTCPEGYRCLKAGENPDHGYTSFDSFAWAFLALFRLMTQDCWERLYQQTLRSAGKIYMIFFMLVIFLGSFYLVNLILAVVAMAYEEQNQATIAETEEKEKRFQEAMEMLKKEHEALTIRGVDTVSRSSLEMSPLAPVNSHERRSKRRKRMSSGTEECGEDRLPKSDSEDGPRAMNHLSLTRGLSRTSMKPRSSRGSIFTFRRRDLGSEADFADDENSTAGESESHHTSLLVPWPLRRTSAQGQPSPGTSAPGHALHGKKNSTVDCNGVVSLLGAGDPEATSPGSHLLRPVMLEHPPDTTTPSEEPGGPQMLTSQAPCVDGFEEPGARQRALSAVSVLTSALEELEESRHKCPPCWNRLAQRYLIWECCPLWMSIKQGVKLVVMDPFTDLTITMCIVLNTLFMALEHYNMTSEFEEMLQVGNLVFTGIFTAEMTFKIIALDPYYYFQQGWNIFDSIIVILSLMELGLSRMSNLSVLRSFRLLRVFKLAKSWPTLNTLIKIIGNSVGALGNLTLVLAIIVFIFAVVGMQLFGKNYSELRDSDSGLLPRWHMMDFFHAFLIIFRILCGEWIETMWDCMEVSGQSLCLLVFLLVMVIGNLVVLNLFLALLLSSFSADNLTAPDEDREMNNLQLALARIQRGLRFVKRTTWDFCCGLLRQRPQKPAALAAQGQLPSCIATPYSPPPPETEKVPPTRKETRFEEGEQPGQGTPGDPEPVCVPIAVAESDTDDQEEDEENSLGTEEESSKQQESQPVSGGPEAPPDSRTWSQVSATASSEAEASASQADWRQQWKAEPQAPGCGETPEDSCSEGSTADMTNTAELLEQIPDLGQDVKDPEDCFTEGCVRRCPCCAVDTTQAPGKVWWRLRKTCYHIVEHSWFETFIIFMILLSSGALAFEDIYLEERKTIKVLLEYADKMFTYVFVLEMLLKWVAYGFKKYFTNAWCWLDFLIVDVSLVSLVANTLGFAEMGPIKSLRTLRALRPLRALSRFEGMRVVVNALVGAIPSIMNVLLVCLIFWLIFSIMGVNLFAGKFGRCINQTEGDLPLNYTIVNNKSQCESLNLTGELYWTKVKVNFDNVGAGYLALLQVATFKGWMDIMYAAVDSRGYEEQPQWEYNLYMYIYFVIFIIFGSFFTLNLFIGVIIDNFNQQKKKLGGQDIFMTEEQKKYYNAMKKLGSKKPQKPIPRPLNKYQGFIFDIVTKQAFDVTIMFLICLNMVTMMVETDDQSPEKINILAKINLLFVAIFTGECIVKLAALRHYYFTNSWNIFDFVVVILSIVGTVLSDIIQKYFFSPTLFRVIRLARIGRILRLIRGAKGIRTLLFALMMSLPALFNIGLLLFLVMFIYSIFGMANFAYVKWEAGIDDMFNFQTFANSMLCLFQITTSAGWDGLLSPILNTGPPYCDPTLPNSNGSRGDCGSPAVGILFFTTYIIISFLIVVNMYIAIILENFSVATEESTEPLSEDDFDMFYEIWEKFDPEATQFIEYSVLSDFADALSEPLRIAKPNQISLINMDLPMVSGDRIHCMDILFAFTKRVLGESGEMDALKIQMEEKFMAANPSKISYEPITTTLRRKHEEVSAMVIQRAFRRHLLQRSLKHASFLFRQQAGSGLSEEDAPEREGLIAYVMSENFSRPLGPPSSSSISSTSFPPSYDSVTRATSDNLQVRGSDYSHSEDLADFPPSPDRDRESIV
# [4] = target: T3, Alpha-2A adrenergic receptor (Homo sapiens, UniProt P08913)
# T3 sequence (P08913 whole entry): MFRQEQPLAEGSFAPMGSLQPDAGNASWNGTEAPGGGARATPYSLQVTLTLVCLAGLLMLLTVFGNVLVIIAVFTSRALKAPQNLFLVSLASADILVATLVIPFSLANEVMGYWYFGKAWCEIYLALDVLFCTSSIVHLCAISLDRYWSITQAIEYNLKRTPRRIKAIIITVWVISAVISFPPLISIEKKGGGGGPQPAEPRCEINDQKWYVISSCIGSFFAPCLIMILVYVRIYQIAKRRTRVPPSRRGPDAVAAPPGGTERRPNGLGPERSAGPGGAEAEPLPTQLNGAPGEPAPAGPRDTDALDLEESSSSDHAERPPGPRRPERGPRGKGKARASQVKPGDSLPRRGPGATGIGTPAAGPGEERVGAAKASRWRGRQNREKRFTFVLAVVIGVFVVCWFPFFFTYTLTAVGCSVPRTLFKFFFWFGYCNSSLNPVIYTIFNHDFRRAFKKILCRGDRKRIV
# Glucagon receptor = Glucagon receptor (Homo sapiens, UniProt P47871)
# [5] = target: Neurotensin receptor type 1 (Homo sapiens, UniProt P30989)
# Histamine H2 receptor = Histamine H2 receptor (Homo sapiens, UniProt P25021)
# Sequence of Histamine H2 receptor (P25021 whole entry): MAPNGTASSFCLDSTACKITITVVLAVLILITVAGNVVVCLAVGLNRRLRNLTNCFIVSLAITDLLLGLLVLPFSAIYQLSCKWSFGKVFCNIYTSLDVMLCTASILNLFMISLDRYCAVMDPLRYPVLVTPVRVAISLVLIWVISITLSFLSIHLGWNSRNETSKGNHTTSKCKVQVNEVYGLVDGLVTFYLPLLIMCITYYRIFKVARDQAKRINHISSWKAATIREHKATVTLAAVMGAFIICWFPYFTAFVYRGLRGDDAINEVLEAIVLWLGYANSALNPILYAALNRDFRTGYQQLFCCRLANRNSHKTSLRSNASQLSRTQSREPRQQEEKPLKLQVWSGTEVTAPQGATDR
# [6] = target: Voltage-dependent N-type calcium channel subunit alpha-1B (Rattus norvegicus, UniProt Q02294); format: functional
# [7] = target: T4, Gastric inhibitory polypeptide receptor (Homo sapiens, UniProt P48546)
# T4 sequence (P48546 whole entry): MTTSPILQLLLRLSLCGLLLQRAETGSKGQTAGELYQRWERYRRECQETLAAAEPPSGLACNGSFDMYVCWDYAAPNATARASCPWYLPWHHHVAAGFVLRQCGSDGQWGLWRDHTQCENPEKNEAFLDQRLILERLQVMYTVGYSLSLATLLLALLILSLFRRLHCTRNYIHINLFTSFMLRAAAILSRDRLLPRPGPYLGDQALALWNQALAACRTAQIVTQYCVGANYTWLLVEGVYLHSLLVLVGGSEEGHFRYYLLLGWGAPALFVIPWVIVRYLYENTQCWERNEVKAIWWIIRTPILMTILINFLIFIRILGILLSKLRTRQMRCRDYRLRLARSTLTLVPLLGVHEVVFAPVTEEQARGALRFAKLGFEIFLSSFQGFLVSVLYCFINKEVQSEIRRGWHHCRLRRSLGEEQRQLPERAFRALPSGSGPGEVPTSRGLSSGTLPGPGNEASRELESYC
# Histamine H1 receptor [8] = target: T5, Histamine H1 receptor (Homo sapiens, UniProt P35367); format: functional, cell-based
# T5 sequence (P35367 whole entry): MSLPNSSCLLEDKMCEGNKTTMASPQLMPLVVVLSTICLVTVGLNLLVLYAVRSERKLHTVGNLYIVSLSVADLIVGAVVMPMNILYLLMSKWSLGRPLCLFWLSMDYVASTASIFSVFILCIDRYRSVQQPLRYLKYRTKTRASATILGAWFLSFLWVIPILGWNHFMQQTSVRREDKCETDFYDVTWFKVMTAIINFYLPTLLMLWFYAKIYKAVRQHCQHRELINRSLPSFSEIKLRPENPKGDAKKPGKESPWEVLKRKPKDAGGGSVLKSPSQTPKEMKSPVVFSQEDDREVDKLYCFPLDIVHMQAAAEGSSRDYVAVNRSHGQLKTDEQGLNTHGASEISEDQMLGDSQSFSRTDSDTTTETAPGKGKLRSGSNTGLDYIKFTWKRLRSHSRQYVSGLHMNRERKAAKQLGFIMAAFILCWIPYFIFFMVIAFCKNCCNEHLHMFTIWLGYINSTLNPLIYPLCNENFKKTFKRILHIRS
# Histamine H1 receptor [9] = target: T5, Histamine H1 receptor; format: functional, cell-based; remark: listed apart in the source
# Further: assay procedure not described here.
compound,measurement,setting,value
CN1CCCN=C1/C=C/c1cccc(O)c1 [OXANTEL],AC50,Androgen receptor,26 µM
COC(=O)c1ccc2c(c1)NC(=O)/C2=C(\Nc1ccc(N(C)C(=O)CN2CCN(C)CC2)cc1)c1ccccc1 [NINTEDANIB],AC50,Androgen receptor,> 30 µM
same,AC50,[1],> 30 µM
same,AC50,[2],> 30 µM
same,AC50,[3],13 µM
C[C@H](N)C(=O)N[C@@H](CCC(N)=O)C(=O)O [ALANYL GLUTAMINE] (H-Ala-Gln-OH),AC50,Androgen receptor,> 30 µM
CCN1C(=O)NC(c2ccccc2)C1=O (stereo unspecified) [ETHOTOIN],AC50,[1],> 30 µM
same,AC50,[2],> 30 µM
CCN(CC)C(C)C(=O)c1ccccc1 (stereo unspecified) [DIETHYLPROPION],AC50,[4],4.46 µM
same,AC50,Glucagon receptor,> 30 µM
same,AC50,[5],> 30 µM
same,AC50,Histamine H2 receptor,> 10 µM
same,AC50,[6],> 10 µM
same,AC50,[7],> 30 µM
N=C(N)NC(=O)Cc1c(Cl)cccc1Cl [GUANFACINE],AC50,[2],> 30 µM
Cc1ccc(S(=O)(=O)NC(=O)N[C@H]2[C@H]3CC[C@@](C)([C@H]2O)C3(C)C)cc1 [GLIBORNURIDE],AC50,Androgen receptor,> 30 µM
O=C(O)c1ccc2nc(-c3cc(Cl)cc(Cl)c3)oc2c1,AC50,Androgen receptor,> 30 µM
same,AC50,[3],> 30 µM
CC1=C(CC(=O)O)c2cc(F)ccc2/C1=C\c1ccc([S+](C)[O-])cc1 (stereo unspecified),AC50,[4],> 10 µM
same,AC50,Glucagon receptor,> 30 µM
same,AC50,[5],> 30 µM
same,AC50,Histamine H2 receptor,> 10 µM
same,AC50,[6],> 10 µM
same,AC50,[7],> 30 µM
CC1=C(C(=O)O)N2C(=O)[C@@H](NC(=O)[C@H](N)C3=CCC=CC3)[C@H]2SC1 [CEPHRADINE],AC50,[1],> 30 µM
same,AC50,[2],> 30 µM
CC1Cc2ccccc2N1NC(=O)c1ccc(Cl)c(S(N)(=O)=O)c1 (stereo unspecified) [INDAPAMIDE],AC50,[4],> 10 µM
same,AC50,[6],> 10 µM
CCN(CC)CCCN(c1ccccc1)C1Cc2ccccc2C1 [APRINDINE],AC50,Histamine H1 receptor [8],> 30 µM
same,AC50,[1],> 30 µM
same,AC50,[2],> 30 µM
same,AC50,Histamine H1 receptor [9],8 µM
Cc1nnc2n1-c1ccc(Cl)cc1C(c1ccccc1)=NC2 [ALPRAZOLAM],AC50,[4],> 10 µM
same,AC50,Glucagon receptor,> 30 µM
same,AC50,[5],> 30 µM
same,AC50,Histamine H2 receptor,> 10 µM
same,AC50,[6],> 10 µM
same,AC50,[7],> 30 µM
CC(=O)OCC(=O)[C@@]1(O)CC[C@H]2[C@@H]3CCC4=CC(=O)CC[C@]4(C)[C@@]3(F)[C@@H](O)C[C@@]21C [FLUDROCORTISONE ACETATE],AC50,Androgen receptor,> 30 µM
CC(C)(N)Cc1ccccc1 [PHENTERMINE],AC50,Glucagon receptor,> 30 µM
same,AC50,[5],> 30 µM
same,AC50,[6],> 10 µM
same,AC50,[7],> 30 µM
CCCCCCOC(=O)NC(=N)c1ccc(NCc2nc3cc(C(=O)N(CCC(=O)OCC)c4ccccn4)ccc3n2C)cc1 [DABIGATRAN ETEXILATE],AC50,[1],> 30 µM
same,AC50,[2],> 30 µM
same,AC50,[3],3 µM
OCCN(CCO)c1nc(N2CCCCC2)c2nc(N(CCO)CCO)nc(N3CCCCC3)c2n1 [DIPYRIDAMOLE],AC50,[5],> 30 µM
CN(C)CCOCC(=O)NC12CC3CC(CC(C3)C1)C2 [TROMANTADINE],AC50,Androgen receptor,> 30 µM
Cc1cnc(Nc2ccc(OCCN3CCCC3)cc2)nc1Nc1cccc(S(=O)(=O)NC(C)(C)C)c1 [FEDRATINIB],AC50,[3],7.7 µM
CC(=O)OCC1=C(C(=O)O)N2C(=O)[C@@H](NC(=O)Cc3cccs3)[C@H]2SC1 [CEPHALOTHIN],AC50,[1],> 30 µM
same,AC50,[2],> 30 µM
CCCO[C@H]1[C@@H]([C@@H](COCc2ccc(Cl)cc2)OCc2ccc(Cl)cc2)OC(OCC)[C@@H]1O (stereo partly specified) [CLOBENOSIDE],AC50,Androgen receptor,> 30 µM
COc1ccc(C(Cl)=C(c2ccc(OC)cc2)c2ccc(OC)cc2)cc1 [CHLOROTRIANISENE],AC50,Histamine H1 receptor [8],> 30 µM
same,AC50,[1],> 30 µM
same,AC50,[2],> 30 µM
same,AC50,Histamine H1 receptor [9],> 30 µM
CCN(CC)CC(=O)Nc1c(C)cccc1C [LIDOCAINE],AC50,Glucagon receptor,> 30 µM
same,AC50,[5],> 30 µM
same,AC50,[7],> 30 µM
CCCCOC(=O)C(=O)Nc1cccc(-c2nnn[nH]2)c1 [TAZANOLAST],AC50,Androgen receptor,> 30 µM
CC(=O)Oc1cccc2c1C(=O)c1c(OC(C)=O)cc(C(=O)O)cc1C2=O [DIACEREIN],AC50,Androgen receptor,> 30 µM
CCCCC[C@H](O)CC[C@@H]1[C@H]2Cc3cccc(OCC(=O)O)c3C[C@H]2C[C@H]1O [TREPROSTINIL],AC50,Androgen receptor,> 30 µM
COc1ccc(-n2nc(C(N)=O)c3c2C(=O)N(c2ccc(N4CCCCC4=O)cc2)CC3)cc1 [APIXABAN],AC50,Androgen receptor,> 30 µM
same,AC50,[1],> 30 µM
same,AC50,[2],> 30 µM
same,AC50,[3],> 50 µM
